Experiments:
Assay type in all cases: in vivo
Blattella germanica [1] = experiment: Knockdown spray test on Blattella germanica, 2.0% w/v oil formulation (Test Example 1); settings: topical, 0.25 h, active ingredient 2.0% w/v, 1.5 ml sprayed, within 15 minutes, read-out: knockdown rate of the test insects within 15 minutes
Summary of the method: (§1)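 Ten German cockroaches (5 males, 5 females) in a mesh-bottomed, butter-walled container were sprayed with 1.5 ml test solution from 60 cm at 0.42 kg/cm^2 inside a chamber.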

Musca domestica = experiment: Knockdown spray test on adult Musca domestica (Test Example 3); settings: topical, 0.25 h, active ingredient 2.0% w/v, 0.5 ml sprayed, within 15 minutes, read-out: knockdown rate of the test insects within 15 minutes
Summary of the method: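 Ten adult house flies (5 male, 5 female) in a gauze-covered cup sprayed with 0.5 ml test solution from 30 cm at 0.9 kg/cm^2 inside a chamber, then removed. Knocked-down flies counted at 2, 5 and 15 min and expressed as % of insects tested.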

Culex pipiens pallens [2] = experiment: Knockdown spray test on adult Culex pipiens pallens (Test Example 4); settings: topical, 0.25 h, active ingredient 0.1% w/v, 0.5 ml sprayed, within 15 minutes, read-out: knockdown rate of the test insects within 15 minutes
Summary of the method: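 Ten adult mosquitoes in a gauze-covered cup inside a 46×46×70 cm chamber were sprayed with 0.5 ml of test solution from 30 cm at 0.4 kg/cm^2. The cup was removed at once, and knocked-down insects were counted at 2, 5 and 15 min; knockdown rate (%) = knocked-down/tested ×100.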

Aphis gossypii = experiment: Foliar spray test on Aphis gossypii on cucumber (Test Example 8); settings: 144 h, 500 ppm spray 20 ml/cup, Sir days after spraying, read-out: controlling value
Protocol: On the other hand, cucumber was planted in a polyethylene cup and grown until the first true leaf was spread, and about 20 Aphis gossypii were allowed to parasitize the cucumber. One day after, the test spray solution was sprayed to the cucumber at a ratio of 20 ml/cup. Sir days after spraying, the number of Aphis gossypii was investigated, and the controlling value was calculated according to the following equation. Controlling value (%)={1−(Cb×Tai)/(Cai×Tb)}×100 In the equation, the symbols represent as follows. Cb: the number of insects in a non-treated section before treatment Cai: the number of insects in a non-treated section on observation Tb: the number of insects in a treated section before treatment Tai: the number of insects in a treated section on observation

Plutella xylostella = experiment: Foliar spray test on Plutella xylostella on cabbage (Test Example 10); settings: 120 h, third instar larvae of Plutella xylostella on cabbage, 500 ppm spray 20 ml/cup, after five days, read-out: controlling value
Summary of the method: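 Cabbage at the third–fourth true-leaf stage sprayed with test solution at 20 ml/cup, dried, then infested with 10 third-instar larvae. Insects counted after five days; controlling value (%) calculated from treated and non-treated counts before treatment and at observation.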

Spodoptera litura = experiment: Foliar spray test on Spodoptera litura on cabbage (Test Example 11); settings: 96 h, fourth instar larvae of Spodoptera litura on cabbage, 500 ppm spray 20 ml/cup, after 4 days, read-out: controlling value
Summary of the method: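 Cabbage is grown in cups to the third–fourth true leaf and sprayed at 20 ml/cup. Once the spray has dried, 10 fourth-instar larvae are released per cup and survivors are counted after 4 days. Controlling value (%) is corrected using pre-treatment and observation counts in treated and untreated sections.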

[3] = tested on: Adoxophyes orana fasciata; experiment: Spray test on Adoxophyes orana fasciata on apple seedling (Test Example 12); settings: 168 h, first-instar larvae of Adoxophyes orana fasciata on apple seedling, 20 ml spray, seven days after spraying
Protocol: On the other hand, 20 ml of the test spray solution was each sprayed on an apple seedling (28 days after sowing, a tree height of about 15 cm) planted in a plastic cup. After the drug solution sprayed on the apple was air-dried, about 30 first-instar larvae of Adoxophyes orana fasciata were released. Seven days after spraying, the number of surviving Adoxophyes orana fasciata on the apple seedling was investigated, and the controlling value was calculated according to the following equation. Controlling value (%)={1−(Cb×Tai)/(Cai×Tb)}×100 In the equation, the symbols represent as follows. Cb: the number of insects in a non-treated section before treatment Cai: the number of insects in a non-treated section on observation Tb: the number of insects in a treated section before treatment Tai: the number of insects in a treated section on observation

Culex pipiens pallens [4] = experiment: Larvicidal test on Culex pipiens pallens, one day (Test Example 6); settings: 24 h; last-instar larvae of Culex pipiens pallens; 3.5 ppm in water; one day later; read-out: death rate
Summary of the method: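 Twenty last-instar larvae were placed in 100 ml ion-exchanged water holding 0.7 ml of a 500 ppm aqueous dilution of the formulated compound, giving 3.5 ppm active ingredient. Survival was scored after one day and death rate expressed as dead/tested × 100.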

Culex pipiens pallens [5] = experiment: Larvicidal test on Culex pipiens pallens, eight days (Test Example 7); settings: 192 h; last-instar larvae of Culex pipiens pallens; 3.5 ppm in water; eight days later; read-out: death rate
Summary of the method: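 Twenty last-instar larvae placed in 100 ml ion-exchanged water containing test drug at 3.5 ppm active ingredient. Mortality scored after eight days; death rate = dead/tested × 100.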

Blattella germanica [6] = experiment: Knockdown spray test on Blattella germanica, 0.1% w/v oil formulation (Test Example 2); settings: topical, 0.25 h, active ingredient 0.1% w/v, 1.5 ml sprayed, within 15 minutes, read-out: knockdown rate of the test insects within 15 minutes
Summary of the method: as §1

With O=C(NCC1CCOCC1)c1cc(COCc2cccc(C(F)(F)F)c2)on1 [(65)] the pest or weed control at 2 % strength (Blattella germanica [1]) was at least 80%, the pest or weed control at 2 % strength (Musca domestica) was at least 80% and the pest or weed control at 0.1 % strength (Culex pipiens pallens [2]) was at least 80%. The pest or weed control at 500 ppm (Aphis gossypii) was at least 90%, the pest or weed control at 500 ppm (Plutella xylostella) was at least 90% and the pest or weed control at 500 ppm (Spodoptera litura) was at least 80%. For the same molecule, the pest or weed control at 500 ppm [3] was 100%.

In the case of O=C(NCC1CCOC1)c1noc(COCc2ccccc2)c1C(F)F (centres unmarked) [(171), N-(tetrahydrofuran-3-ylmethyl)-(5-benzyloxymethyl-4-difluoromethyl)isoxazole-3-carboxamide], the pest or weed control at 0.1 % strength (Culex pipiens pallens [2]) is reported as at least 80%, the pest or weed control at 3.5 ppm (Culex pipiens pallens [4]) is reported as at least 90% and the pest or weed control at 3.5 ppm (Culex pipiens pallens [5]) is reported as at least 90%. The pest or weed control at 500 ppm (Plutella xylostella) was at least 90%, the pest or weed control at 500 ppm (Spodoptera litura) was at least 80% and the pest or weed control at 500 ppm [3] was 100%.

With O=C(NCC1CCOCC1)c1cc(COCc2ccc(Cl)c(Cl)c2)on1 [(73), N-(tetrahydropyran-4-ylmethyl)-5-(3,4-dichlorobenzyloxymethyl)isoxazole-3-carboxamide] the pest or weed control at 0.1 % strength (Blattella germanica [6]) was at least 80%, the pest or weed control at 0.1 % strength (Culex pipiens pallens [2]) was at least 80% and the pest or weed control at 3.5 ppm (Culex pipiens pallens [5]) was at least 90%. It also gave a pest or weed control at 500 ppm (Aphis gossypii) of at least 90%, a pest or weed control at 500 ppm (Plutella xylostella) of at least 90% and a pest or weed control at 500 ppm (Spodoptera litura) of at least 80%. For the same molecule, the pest or weed control at 500 ppm [3] was 100%.
